Where “and” joins values, the source holds several entries; their conditions need not be identical. Identical values can stand only once. Toxic doses and inconclusive results are not listed. Cut-off read from the data, not from the text of the source: active = T/C of 150% or more; inactive = T/C below 125%.
Test system: L1210 leukemia ip in BDF1 mice, survival T/C
Test: NCI In Vivo Anticancer Drug Screen. Data for tumor model L1210 Leukemia (intraperitoneal) in B6D2F1 (BDF1) mice
Conditions: endpoint: mean survival time, higher = longer survival
In short: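 Antitumor effect is assessed in tumor-bearing animals. Survival in the compound arm is compared with a vehicle-dosed control arm and expressed as their quotient.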

[1] = dose: 100.0 mg/kg/injection, schedule: Q04DX003 (ip), vehicle: saline
[2] = dose: 200.0 mg/kg/injection, schedule: Q04DX003 (ip), vehicle: saline
[3] = dose: 400.0 mg/kg/injection, schedule: Q04DX003 (ip), vehicle: saline
[4] = dose: 100.0 mg/kg/injection, schedule: Q04DX002 (ip), vehicle: Klucel (hydroxypropylcellulose) (HPC)
[5] = dose: 200.0 mg/kg/injection, schedule: Q04DX002 (ip), vehicle: Klucel (hydroxypropylcellulose) (HPC)
[6] = dose: 400.0 mg/kg/injection, schedule: Q04DX002 (ip), vehicle: Klucel (hydroxypropylcellulose) (HPC)
[7] = dose: 100.0 mg/kg/injection, schedule: Q01DX001 (ip), vehicle: carboxymethylcellulose (CMC)
[8] = dose: 200.0 mg/kg/injection, schedule: Q01DX001 (ip), vehicle: carboxymethylcellulose (CMC)
[9] = dose: 400.0 mg/kg/injection, schedule: Q01DX001 (ip), vehicle: carboxymethylcellulose (CMC)
[10] = dose: 100.0 mg/kg/injection, schedule: Q04DX003 (ip), vehicle: Klucel (hydroxypropylcellulose) (HPC)
[11] = dose: 200.0 mg/kg/injection, schedule: Q04DX003 (ip), vehicle: Klucel (hydroxypropylcellulose) (HPC)
[12] = dose: 400.0 mg/kg/injection, schedule: Q04DX003 (ip), vehicle: Klucel (hydroxypropylcellulose) (HPC)
[13] = dose: 100.0 mg/kg/injection, schedule: Q01DX009 (ip), vehicle: saline sonified
[14] = dose: 200.0 mg/kg/injection, schedule: Q01DX009 (ip), vehicle: saline sonified
[15] = dose: 400.0 mg/kg/injection, schedule: Q01DX009 (ip), vehicle: saline sonified

Measured: T/C

CC(=O)OCc1cccc(C)n1
inactive: dose: 100.0 mg/kg/injection, schedule: Q01DX009 (ip), vehicle: saline 97 % of control | [1] 94 % of control and 102 % of control | dose: 200.0 mg/kg/injection, schedule: Q01DX009 (ip), vehicle: saline 96 % of control | [2] 100 % of control | dose: 400.0 mg/kg/injection, schedule: Q01DX009 (ip), vehicle: saline 100 % of control | [3] 93 % of control and 97 % of control

Cc1ccc(C(=O)OCc2ccccc2CN2CCOCC2)cc1
inactive: [4] 100 % of control | [5] 103 % of control | [6] 92 % of control

O=C(Nc1cccc(F)c1)Nc1ccc(C(=O)O)c(O)c1
inactive: dose: 100.0 mg/kg/injection, schedule: Q01DX009 (ip), vehicle: saline with Tween-80 91 % of control | dose: 200.0 mg/kg/injection, schedule: Q01DX009 (ip), vehicle: saline with Tween-80 95 % of control

Cc1cc(OCCBr)ccc1[N+](=O)[O-]
inactive: dose: 100.0 mg/kg/injection, schedule: Q01DX001 (ip), vehicle: Klucel (hydroxypropylcellulose) (HPC) 92 % of control | dose: 200.0 mg/kg/injection, schedule: Q01DX001 (ip), vehicle: Klucel (hydroxypropylcellulose) (HPC) 95 % of control | dose: 400.0 mg/kg/injection, schedule: Q01DX001 (ip), vehicle: Klucel (hydroxypropylcellulose) (HPC) 95 % of control

C(=N\Nc1ccccc1)/c1cccc[n+]1Cc1ccccc1
inactive: dose: 75.0 mg/kg/injection, schedule: Q01DX001 (ip), vehicle: other 95 % of control | dose: 150.0 mg/kg/injection, schedule: Q01DX001 (ip), vehicle: other 96 % of control

Cc1ccc(S(=O)(=O)C(CC(=O)O)c2ccccc2)cc1 (stereo not drawn)
inactive: [7] 88 % of control | [8] 93 % of control | [9] 98 % of control

CCOC(/C=C(\C)C(C)=O)OCC
inactive: [1] 97 % of control | [2] 98 % of control | [3] 95 % of control

COC(C(=O)O)c1cccc2ccccc12 (stereo not drawn)
inactive: [4] 113 % of control | [5] 109 % of control | [6] 98 % of control

CC(/C=N/N(C)C)=N\N(C)C
inactive: [1] 92 % of control | [2] 102 % of control

COc1cc(/C=N/NC(=O)c2cccc([N+](=O)[O-])c2)ccc1O
inactive: [7] 98 % of control | dose: 100.0 mg/kg/injection, schedule: Q01DX009 (ip), vehicle: carboxymethylcellulose (CMC) 97 % of control and 107 % of control | dose: 100.0 mg/kg/injection, schedule: Q04DX002 (ip), vehicle: carboxymethylcellulose (CMC) 101 % of control and 108 % of control | [8] 96 % of control | dose: 200.0 mg/kg/injection, schedule: Q01DX009 (ip), vehicle: carboxymethylcellulose (CMC) 93 % of control and 103 % of control | dose: 200.0 mg/kg/injection, schedule: Q04DX002 (ip), vehicle: carboxymethylcellulose (CMC) 101 % of control and 104 % of control | [9] 91 % of control | dose: 400.0 mg/kg/injection, schedule: Q01DX009 (ip), vehicle: carboxymethylcellulose (CMC) 97 % of control and 100 % of control | dose: 400.0 mg/kg/injection, schedule: Q04DX002 (ip), vehicle: carboxymethylcellulose (CMC) 104 % of control and 105 % of control

O=C(O)c1ccc2[nH]c(=O)c(=O)[nH]c2c1
inactive: [10] 96 % of control | [11] 101 % of control | [12] 102 % of control

OC(CI)C(O)C(O)C(O)CI (stereo not drawn)
inactive: dose: 50.0 mg/kg/injection, schedule: Q01DX009 (ip), vehicle: other 101 % of control | dose: 100.0 mg/kg/injection, schedule: Q01DX009 (ip), vehicle: other 101 % of control and 106 % of control | dose: 100.0 mg/kg/injection, schedule: Q## X024 (ip), vehicle: other 103 % of control | dose: 177.0 mg/kg/injection, schedule: Q01DX Z (ip), vehicle: methylcellulose (MC) 92 % of control | dose: 200.0 mg/kg/injection, schedule: Q01DX001 (ip), vehicle: other 103 % of control and 101 % of control | dose: 200.0 mg/kg/injection, schedule: Q01DX009 (ip), vehicle: other 95 % of control and 111 % of control | dose: 200.0 mg/kg/injection, schedule: Q## X003 (ip), vehicle: other 109 % of control | dose: 200.0 mg/kg/injection, schedule: Q## X024 (ip), vehicle: other 111 % of control | dose: 267.0 mg/kg/injection, schedule: Q01DX Z (ip), vehicle: methylcellulose (MC) 108 % of control | dose: 400.0 mg/kg/injection, schedule: Q01DX001 (ip), vehicle: other 97 % of control and 111 % of control | dose: 400.0 mg/kg/injection, schedule: Q01DX009 (ip), vehicle: other 101 % of control | dose: 400.0 mg/kg/injection, schedule: Q01DX Z (ip), vehicle: methylcellulose (MC) 93 % of control | dose: 400.0 mg/kg/injection, schedule: Q## X003 (ip), vehicle: other 109 % of control | dose: 400.0 mg/kg/injection, schedule: Q## X024 (ip), vehicle: other 108 % of control | dose: 600.0 mg/kg/injection, schedule: Q01DX Z (ip), vehicle: methylcellulose (MC) 98 % of control | dose: 800.0 mg/kg/injection, schedule: Q01DX001 (ip), vehicle: other 105 % of control and 101 % of control | dose: 800.0 mg/kg/injection, schedule: Q## X003 (ip), vehicle: other 109 % of control | dose: 800.0 mg/kg/injection, schedule: Q## X024 (ip), vehicle: other 124 % of control

NCC(O)C(F)(F)C(F)(F)C(F)(F)F (stereo not drawn)
inactive: [7] 103 % of control | [8] 103 % of control | [9] 95 % of control

O=C(Nc1cccc(Cl)c1Cl)C(Cl)(Cl)Cl
inactive: [4] 100 % of control | [5] 104 % of control | [6] 88 % of control

CCNC(C)(C)C(SSS)c1cccs1 (stereo not drawn)
inactive: [13] 96 % of control | dose: 100.0 mg/kg/injection, schedule: Q04DX003 (ip), vehicle: saline sonified 91 % of control | [14] 94 % of control | dose: 200.0 mg/kg/injection, schedule: Q04DX003 (ip), vehicle: saline sonified 87 % of control | [15] 88 % of control | dose: 400.0 mg/kg/injection, schedule: Q04DX003 (ip), vehicle: saline sonified 89 % of control

Cc1ccc(S(=O)(=O)OCCCCCCCCCCCCCCOS(=O)(=O)c2ccc(C)cc2)cc1
inactive: dose: 100.0 mg/kg/injection, schedule: Q01DX009 (ip), vehicle: Klucel (hydroxypropylcellulose) (HPC) 97 % of control | [10] 97 % of control | dose: 200.0 mg/kg/injection, schedule: Q01DX009 (ip), vehicle: Klucel (hydroxypropylcellulose) (HPC) 98 % of control | [11] 96 % of control | dose: 400.0 mg/kg/injection, schedule: Q01DX009 (ip), vehicle: Klucel (hydroxypropylcellulose) (HPC) 106 % of control | [12] 92 % of control

O=[N+]([O-])c1cccc2c([N+](=O)[O-])cccc12
inactive: [13] 107 % of control | [10] 95 % of control | [14] 101 % of control | [11] 92 % of control | [15] 109 % of control | [12] 90 % of control

CCNC(=O)NCc1ccc(C)cc1
inactive: [4] 102 % of control | [5] 105 % of control | [6] 112 % of control

Cc1ccc(N2CCOC2=O)cc1N1CCOC1=O
inactive: dose: 25.0 mg/kg/injection, schedule: Q04DX003 (ip), vehicle: other 97 % of control | dose: 50.0 mg/kg/injection, schedule: Q04DX003 (ip), vehicle: other 104 % of control | dose: 100.0 mg/kg/injection, schedule: Q04DX003 (ip), vehicle: other 103 % of control | dose: 100.0 mg/kg/injection, schedule: Q04DX003 (ip), vehicle: saline with Tween-80 94 % of control

Cc1nc(N)[nH]c(=O)c1CCCNc1ccc(F)cc1
inactive: dose: 25.0 mg/kg/injection, schedule: Q01DX001 (ip), vehicle: saline with Tween-80 95 % of control | dose: 50.0 mg/kg/injection, schedule: Q01DX001 (ip), vehicle: saline with Tween-80 93 % of control | dose: 100.0 mg/kg/injection, schedule: Q01DX001 (ip), vehicle: saline with Tween-80 92 % of control

CCN(CC)C(=Nc1ccc(NC(=O)c2ccc(C(=O)Nc3ccc(N=C(c4ccccc4)N(CC)CC)cc3)cc2)cc1)c1ccccc1
inactive: dose: 15.0 mg/kg/injection, schedule: Q01DX Z (ip), vehicle: carboxymethylcellulose (CMC) 92 % of control | dose: 30.0 mg/kg/injection, schedule: Q01DX Z (ip), vehicle: carboxymethylcellulose (CMC) 93 % of control | dose: 60.0 mg/kg/injection, schedule: Q01DX Z (ip), vehicle: carboxymethylcellulose (CMC) 98 % of control | dose: 120.0 mg/kg/injection, schedule: Q01DX Z (ip), vehicle: carboxymethylcellulose (CMC) 114 % of control

COC(=O)c1cc(Cl)cc(NC(C)=O)c1Cl
inactive: [4] 97 % of control | [5] 97 % of control | [6] 97 % of control

— PubChem BioAssay AID248 (DTP/NCI, 2004)
